“Also recorded” adds a separate entry of the source.
What was measured:
Type in all cases: in vivo, rat
MADB106 cells [1] = experiment: MADB106 lung metastasis / lung tumor retention; conditions: naloxone 1 mg/kg every 12 hours, 3 times
Experimental: A method for lung metastasis was adapted using MADB106 breast cancer cells, a NK-sensitive cell line widely used for lung metastasis study. Animals were anesthetized, and 100,000/0.2 ml/rat of MADB106 cells suspended in media were inoculated into jugular vein. After 4˜6 weeks, 70˜80% of inoculated animals developed tumor at the position of lung and/or neck, where the tumor cells were inoculated into the jugular vein.
30 female Fischer rats were implanted with control, cAMP (10 μM) or cAMP (5 μM)+PACAP (5 μM) nanospheres into 3rd ventricle. 2 weeks later, half of the animals were randomly assigned to treatment with Naloxone (1 mg/kg body every 12 hours) for 3 times. After the second injection of Naloxone, animals were anesthetized and inoculated with 100,000/0.2 ml/rat MADB106 cells. 2 months later, animals were sacrificed, and lungs were fixed and sectioned for histology diagnosis.
MADB106 cells, a Fischer 344 rat mammary adenocarcinoma cell line maintained in DMEM containing 10% fetal calf serum, was used. Female Fischer-344 rats were transplanted with BEP cell transplants or control cell transplants at 50 days of age. After about 2 weeks, these PVN cell-transplanted rats were inoculated with MADB106 tumor cells (100,000 cells/0.2 mL/rat) into jugular vein under sodium Nembutal solution (50 mg/kg) anesthesia. […]

[2] = Plasma corticosterone after nanosphere implantation; conditions: naloxone 1 mg/kg i.p., 12 hours
Experimental: 2 weeks later, half of the animals were i.p. injected with naloxone (1 mg/kg body weight), which is aμ-opioid receptor antagonist, specifically blocking the effect of β-EP. 12 hours later, animals were anesthetized with Nembutal, and blood was drawn from jugular vein. Plasma corticosterone level was measured with ELISA.
2 months later, animals were anesthetized, and 1 ml of blood was drawn from jugular vein.

MADB106 cells [3] = experiment: Pharmacologic modification of autonomic influence on immune system and lung metastasis
Experimental: 48 β-EP implanted (SC) male Fischer rats and 48 control (C) male Fischer rats were divided into 8 groups, treated with saline, Naloxone (10 mg/kg body weight), Metaproterenol (MP, 0.8 mg/kg body weight), or Methyllycaconitine (MLA, 2.5 mg/kg body weight), respectively. Animals were treated with drugs for 8 days. In the second day of drug injection, animals were inoculated with MADB106 cells (100,000/0.2 ml/rat). 24 hours after tumor cell inoculation, blood was collected by orbital puncture. Plasma was collected, and PBMCs were separated for migration assay and NK cytolytic assay. 7 days after tumor inoculation, blood was taken again by orbital puncture. Plasma was collected, and PBMCs were separated for migration assay and T cell cytolytic assay. After 6 weeks, animals were sacrificed, and brains, spleens and blood were frozen. Lungs were fixed in formalin and processed to H&E staining. […] However, 7 days after tumor inoculation, there isn't a clear pattern of T cell cytolytic activity and macrophage migration activity between groups (FIGS. 30B and 30D).
It was hypothesized that the beneficial effect of BEP neuron transplants on immune function is regulated through autonomic nervous system, and that central BEP modulate peripheral immune function by inhibiting the sympathetic activity and activating the parasympathetic activity. Metaproterenol (MET) is an agonist for β-receptors, which are a class of G protein-coupled receptors that are targets of the catecholamines, especially norepinephrine and epinephrine (Dokur et al. (2004) J Neuroimmunol 5:148-57; Page et al. (2008) J Neuroimmunol 193:113-9). Methyllycaconitine (MLA) is a selective antagonist of α7 nicotine acetylcholine receptor (α7 nAChR; Wu et al. (2011) Clin Cancer Res 17:3533-41). By injecting MET and MLA i.p., the stimulation of sympathetic nerves and inhibition of parasympathetic nerves was mimicked. Naloxone, an opiate receptor antagonist, was used to test whether BEP neuronal effects is acted via opiodergic receptor (Boyadjieva et al. (2006) Alcohol Clin Exp Res 30:1761-7). Forty-eight BEP neuron-transplanted Fischer rats and 48 control rats were divided into 8 groups and treated with saline, naloxone (10 mg/kg body weight), MET (0.8 mg/kg body weight), or MLA (2.5 mg/kg body weight) for 8 days (the doses used for these drugs are recognized as effective biological doses). A day after the first injection of these agents, animals were inoculated with MADB106 cells (100,000/0.2 mL/rat). Twenty-four hours after tumor cell inoculation, blood was collected by orbital puncture. Plasma was collected, and peripheral blood mononuclear cells (PBMC) were separated for migration assay and NK cytolytic assay. These animals continued receiving the blocker treatments for 7 days. After 4 weeks they were sacrificed, their lungs were fixed in formalin and processed to H&E staining for determination of cancer pathology. Brain tissues were processed for verification of the site and viability of BEP cell transplantation.

[4] = 24 hours after MADB106 inoculation, naloxone 10, MP/MET 0.8, MLA 2.5 mg/kg or saline

Structure (SMILES): C=CCN1CC[C@]23c4c5ccc(O)c4O[C@H]2C(=O)CC[C@@]3(O)[C@H]1C5 [naloxone]
- effect on nanosphere-reduced lung tumor retention (MADB106 cells [1]): reversed the effect of nanosphere
- effect on nanosphere-lowered plasma corticosterone [2]: blocked the effect of nanospheres
- PBMC NK cell activity (MADB106 cells [3]; [4]): moderate or strong inhibitory effect
- macrophage migration activity (MADB106 cells [3]; [4]): moderate or strong inhibitory effect
- effect on β-EP elimination of tumor cell lung retention (MADB106 cells [3]; β-EP transplanted Fischer rats, naloxone 10, MP/MET 0.8, MLA 2.5 mg/kg for 8 days): stopped the effect of β-EP; also recorded: prevented, at various degrees

Reference: patent US20120114706A1, “Endorphin Therapy Compositions and Methods of Use Thereof” (priority 2008, published 2012)
